Measured values as given in patent US20060194259A1, “Method for isolating an allosteric effector of a receptor” (priority 2002, published 2006).

Experiments:
receptor EGFP-NK2R [1] = target: T1, receptor EGFP-NK2R (UniProt P16610); experiment: Association kinetics of NKA-Bo with EGFP-NK2R by fluorescence energy transfer (rapid mixing); format: binding; design: % al (max): maximum value observed for the increase in amplitude of the rapid dissociation rate; ns = n; other: 20 nM of NK; % al (at 10 μM); other: compou; fused on or other part: EGFP fused to the receptor as FRET donor
T1 sequence (P16610 1-390): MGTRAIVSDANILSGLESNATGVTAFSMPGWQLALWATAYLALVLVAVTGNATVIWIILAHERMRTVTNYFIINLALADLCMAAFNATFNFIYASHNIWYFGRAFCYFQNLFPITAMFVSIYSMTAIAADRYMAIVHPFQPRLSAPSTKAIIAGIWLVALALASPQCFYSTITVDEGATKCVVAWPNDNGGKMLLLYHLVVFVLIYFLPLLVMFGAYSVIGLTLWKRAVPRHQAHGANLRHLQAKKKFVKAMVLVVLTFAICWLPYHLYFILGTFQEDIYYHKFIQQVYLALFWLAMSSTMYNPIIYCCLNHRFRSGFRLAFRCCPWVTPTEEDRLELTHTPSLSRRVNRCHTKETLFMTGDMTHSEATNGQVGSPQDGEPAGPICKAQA
From the text: Association (FIG. 4A): HEK 293 cells expressing the receptor EGFP-NK2R (NK2R marked with GFP) are put into suspension at a concentration of 2,000,000 cells/ml in Hepes physiological buffer (in mM: 137.5 NaCl; 1.25 MgCl2; 1.25 CaCl2; 6 KCl; 5.6 glucose; 10 Hepes; 0.4 NaH2PO4; 1% BSA (w/v); pH 7.4) and arranged in one of the reservoirs of the rapid mixing device. […] The observation chamber is arranged in a SPEX fluorolog 3 spectrofluorimeter. The temperature of the reservoir of the syringes as well as of the mixing and observation chamber is fixed at 21° C. The excitation wavelength of the observation chamber is fixed at 470 nm, and the fluorescence emission wavelength is fixed at 510 nm. The sampling frequency of the experimental points is fixed at 50 Hz (1 point every 20 msec). The content of the reservoirs is driven towards the mixing and observation chamber using a pneumatic device allowing a flow rate of 4 ml/sec and the evolution of the mixture is recorded continuously from the moment of stopping of the thrust of the pistons of the reservoirs. The reaction of association of NKA-Bo with the receptor EGFP-NK2R is detected in the form of a reduction in the intensity of fluorescence of the GFP carried by the receptor NK2R. The experimental trace is adjusted by a multiexponential curve of type y=λ1 exp (−k1app×T)+λ2 exp (−k2app×T)+“straight”, where λ1 and λ2 are the amplitudes of the rapid and slow relaxations, k1app and k2app are the apparent rate constants of rapid and slow association, T is time and “straight” is a mathematical correction of the signal drift. The values of λ1, λ2, k1app, k2app for a final concentration of NKA-BO of 100 nM are respectively 67%; 32%; 0.6 sec^−1 and 0.03 sec^−1. The correlation coefficient of the adjustment of the experimental curve is R=0.989.
The rapid binding of NKA-Bo, recorded at a concentration of 20 nM using the rapid mixing equipment, is broken down into a sum of two exponentials the rates (kapp) of which differ by a factor of 10. The rapid binding of NKA-Bo (kapp=0.095 sec^−1) represents 44% of the total binding signal, in the absence of A11 (50 μM), whereas it represents 52% of the total signal in the presence of A11. The slow binding is carried out in both cases with an apparent rate (kapp) equal to 0.0095 sec^−1, and an amplitude equal to […] in the absence of A11, and 48% in the presence of A11.

receptor EGFP-NK2R [2] = target: T1, receptor EGFP-NK2R; experiment: Dissociation kinetics of NKA-Bo bound to EGFP-NK2R by fluorescence energy transfer; format: binding; design: % al (max): maximum value observed for the increase in amplitude of the rapid dissociation rate; ns = n; other: 20 nM of NK; % al (at 10 μM); other: compou; fused on or other part: EGFP fused to the receptor as FRET donor
Procedure: Dissociation (FIG. 4B): HEK 293 cells expressing the receptor EGFP-NK2R are put into suspension at a concentration of 1,000,000 cells/ml in Hepes physiological buffer (in mM: 137.5 NaCl; 1.25 MgCl2; 1.25 CaCl2; 6 KCl; 5.6 glucose; 10 Hepes; 0.4 NaH2PO4; 1% BSA (w/v); pH 7.4) and arranged in a 1 ml cuvette equipped with a magnetic stirrer on the cuvette holder of a SPEX fluorolog 3 spectrofluorimeter.
(§1) The amplitude of each relaxation is then given by the adjustment of the experimental traces.

[3] = system: cells not expressing the EGFP-NK2R receptor; experiment: Calcium response on cells not expressing the receptor; format: cell-based; design: key: ns: not significant; ?: uniterpretable; conditions: Table 1
receptor EGFP-NK2R [4] = target: T1, receptor EGFP-NK2R; experiment: Reversion of the binding of NKA-Bo to EGFP-NK2R by fluorescence energy transfer; design: % al (max): maximum value observed for the increase in amplitude of the rapid dissociation rate; ns = n; other: 20 nM of NK; % al (at 10 μM); other: compou; fused on or other part: EGFP fused to the receptor as FRET donor; conditions: 20 nM NKA-Bo; increasing concentration of compound; 100% = NKA 10 μM
From the text: as §1

receptor EGFP-NK2R [5] = target: T1, receptor EGFP-NK2R; experiment: Dissociation of NKA4-10 TR7 from EGFP-NK2R by fluorescence energy transfer; format: binding; design: % al (max): maximum value observed for the increase in amplitude of the rapid dissociation rate; ns = n; other: 20 nM of NK; % al (at 10 μM); other: compou; fused on or other part: EGFP fused to the receptor as FRET donor; conditions: 10° C.; without 805
Procedure: (§2) The x-axis represents time in seconds and the y-axis represents fluorescence.
(§3) In the presence of 10 μM of 805, an acceleration of the dissociation is observed characterized by a modification of the amplitudes of the rapid (88%) and slow (12%) dissociation stages.

receptor EGFP-NK2R [6] = target: T2, receptor EGFP-NK2R (Homo sapiens, UniProt P21452); experiment: Calcium response caused by NKA 4-10 TR7 in HEK 293 cells expressing EGFP-NK2R (indo-1); format: cell-based; conditions: read-out: 50%-effective dose of NKA 4-10 TR7 for the calcium response; without 805
T2 sequence (P21452 1-398): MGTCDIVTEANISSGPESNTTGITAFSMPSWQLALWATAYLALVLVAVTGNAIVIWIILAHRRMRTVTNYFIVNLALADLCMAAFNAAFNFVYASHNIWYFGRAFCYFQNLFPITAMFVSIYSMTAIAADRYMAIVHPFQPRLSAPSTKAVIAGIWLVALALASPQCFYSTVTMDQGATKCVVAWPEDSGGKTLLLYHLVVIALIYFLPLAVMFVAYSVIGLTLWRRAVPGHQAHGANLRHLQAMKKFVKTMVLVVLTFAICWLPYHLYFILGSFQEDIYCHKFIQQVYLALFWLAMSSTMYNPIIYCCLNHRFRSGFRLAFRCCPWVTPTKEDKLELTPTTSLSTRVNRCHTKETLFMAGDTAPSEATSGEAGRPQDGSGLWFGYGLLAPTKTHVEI
Procedure: The cells are put into suspension at a rate of 500,000 cells/ml in Hepes buffer and arranged in a spectrofluorimeter cuvette. The excitation wavelength is fixed at 355 nm and the emission is recorded at […].

receptor EGFP-NK2R [7] = target: T2, receptor EGFP-NK2R; experiment: Dissociation of NKA4-10 TR7 from EGFP-NK2R by fluorescence energy transfer; format: binding; conditions: 10° C.; without 805
Procedure: as §2, §3

[8] = 20 nM NKA-Bo, 10 μM SR 48968, no effector
[9] = in the presence of 50 μM compound, dissociation by non-fluorescent NKA

## CSCC[C@H](NC(=O)[C@H](CC(C)C)NC(=O)CNC(=O)[C@@H](NC(=O)[C@H](Cc1ccccc1)NC(=O)[C@H](CO)NC(=O)[C@H](CC(=O)O)NC(=O)[C@@H](NC(=O)[C@H](CCCCN)NC(=O)[C@H](Cc1c[nH]cn1)NC(=O)CCc1ccc2n1[B-](F)(F)[N+]1=C(c3ccccc3)C=C(c3ccccc3)C1=C2)[C@@H](C)O)C(C)C)C(N)=O [NKA-Bo]
Receptor EGFP-NK2R [1]; NKA-BO 100 nM final, 21° C.
  k1app, apparent rate constant of rapid association: 0.6 s⁻¹
  k2app, apparent rate constant of slow association: 0.03 s⁻¹
  λ1, amplitude of the rapid association relaxation: 67%
  λ2, amplitude of the slow association relaxation: 32%
Receptor EGFP-NK2R [1]; NKA-Bo 20 nM
  kapp of the rapid binding of NKA-Bo: 0.095 s⁻¹
Receptor EGFP-NK2R [1]; NKA-Bo 20 nM, with or without A11
  kapp of the slow binding of NKA-Bo: 0.0095 s⁻¹
Receptor EGFP-NK2R [2]; [8]
  λ1, amplitude of rapid dissociation of NKA-Bo: 40%
  λ2, amplitude of slow dissociation of NKA-Bo: 58%

## N#CCN(Cc1ccc(N)cc1)Cc1ccc2ccccc2c1 [A11, [(4-Amino-benzyl)-naphthalen-2-ylmethyl-amino]-acetonitrile]
[3]
  Ca Rep.: ability to evoke a calcium response on cells not expressing the EGFP-NK2R receptor: ns
Receptor EGFP-NK2R [1]; 20 nM NKA-Bo, in the presence of A11 (50 μM), 44% in its absence
  rapid binding of NKA-Bo, % of the total binding signal: 52%
Receptor EGFP-NK2R [1]; 20 nM NKA-Bo, in the presence of A11 (50 μM), 66% in its absence
  slow binding of NKA-Bo, amplitude: 48%
Receptor EGFP-NK2R [2]; Table 1, ns = not significant
  % al (max): maximum value observed for the increase in amplitude of the rapid dissociation rate: ≧90%
Receptor EGFP-NK2R [2]; at 100 μM of effector, approximately 25% in the absence of effector
  fraction of receptors in the low-affinity state: ~100%
Receptor EGFP-NK2R [2]; dissociation by non-fluorescent NKA in the presence of compound
  effect on the dissociation kinetics of NKA-Bo: accelerating the dissociation rate
Receptor EGFP-NK2R [2]; [9]
  amplitude of the rapid dissociation of NKA-Bo (% of total signal): 78%
  amplitude of the slow dissociation of NKA-Bo (% of total signal): 22%
Receptor EGFP-NK2R [2]; read-out: EC50 (μM): concentration of compound causing a 50% increase (relative to the maximum value) in the percentage of the amplitude of the rapid dissociation rate, Table 1, dissociation of NKA-Bo from EGFP-NK2R, ns = not significant
  EC50: 38 to 44 µM
Receptor EGFP-NK2R [4]
  fraction of the NKA-Bo bound to its site displaced by the compound: 29%

## NKA4-10 TR7: truncated neurokinin NKA4-10 marked in position 7 by Texas Red
Receptor EGFP-NK2R [5]
  amplitude of the slow dissociation of NKA4-10 TR7: 42%
Receptor EGFP-NK2R [6]
  EC50: ~0.02 µM
Receptor EGFP-NK2R [7]
  amplitude of the rapid dissociation of NKA4-10 TR7: 58%
